In US20070093520A1, “Method of treatment of diarrhea-predominant irritable bowel syndrome in a subject” (priority 2005, published 2007):

Test system: diarrhea-predominant IBS subjects
Assay: 3007 Study: open-label 52-week safety study, adverse events and withdrawals
Conditions: Overall

Cc1nccn1C[C@H]1CCc2c(c3cccc4c3n2CCC4)C1=O [cilansetron, (R)-(−)-4,5,6,8,9,10-hexahydro-10-[(2-methyl-1H-imidazol-1-yl)methyl]-11H-pyrido-[3,2,1-jk]-carbazol-11-one]
18 (3%) n (%): TEAE: Back Pain
10 (2%) n (%): TEAE: Blood Triglycerides Increased | TEAE: Blood Urine Present | TEAE: Ear and Labyrinth Disorders
16 (3%) n (%): TEAE: Cardiac Disorders
12 (2%) n (%): TEAE: Coughing and Associated Symptoms
31 (6%) n (%): TEAE: Diarrhoea NOS | TEAE: Faecal Occult Blood Positive
128 (24%) n (%): TEAE: Constipation
3 (<1%) n (%): TEAE: Back Injury NOS | TEAE: Back Pain Aggravated | TEAE: Blood Alkaline Phosphatase NOS Increased | TEAE: Bone Disorders NEC | TEAE: Breast Mass NOS* | TEAE: Breathing Abnormalities | TEAE: Bronchitis Acute NOS | TEAE: Bursitis | TEAE: Calculus Renal NOS | TEAE: Carpal Tunnel Syndrome | TEAE: Contusion | TEAE: Dental Pain and Sensation Disorders | TEAE: Diabetes Mellitus (Incl Subtypes) | TEAE: Dyspnoea NOS
17 (3%) n (%): TEAE: Dyspeptic Signs and Symptoms
6 (1%) n (%): TEAE: Basal Cell Carcinoma | TEAE: Bursal Disorders | TEAE: Dermatitis and Eczema | TEAE: Disturbances in Initiating and Maintaining Sleep | TEAE: Dizziness | TEAE: Elevated Cholesterol
9 (2%) n (%): TEAE: Depression
5 (<1%) n (%): TEAE: Atopic Disorders | TEAE: Blood Pressure Increased | TEAE: Blood and Lymphatic System Disorders | TEAE: Dermal and Epidermal Conditions NEC | TEAE: Diarrhoea Aggravated | TEAE: Ear Infections
1 (<1%) n (%): TEAE: Atrial Fibrillation | TEAE: Atrioventricular Block First Degree | TEAE: Bacteria Identification and Serology (Excl Mycobacteria) | TEAE: Behaviour and Socialisation Disturbances | TEAE: Benign Ovarian Tumour* | TEAE: Biliary Tract Disorder NOS | TEAE: Bilirubin Urine | TEAE: Binocular Eye Movement Disorder NOS | TEAE: Bladder Disorders NEC | TEAE: Bladder Infection NOS | TEAE: Bladder Infections and Inflammations | TEAE: Bladder Prolapse | TEAE: Blood Creatine Phosphokinase Mb Increased | TEAE: Blood Potassium Increased | TEAE: Blood Sodium Increased | TEAE: Bone Density Decreased | TEAE: Bone Disorder NOS | TEAE: Bone Injury | TEAE: Bone Neoplasm Malignant | TEAE: Bone Neoplasms Malignant (Excl Sarcomas) | TEAE: Bone Spur | TEAE: Bradyarrhythmia | TEAE: Breast Calcifications* | TEAE: Breast Disorder NOS* | TEAE: Breath Sounds Decreased | TEAE: Bronchopneumonia NOS | TEAE: Bruising, Ecchymosis and Purpura | TEAE: Bundle Branch Block Right | TEAE: Calculus Ureteric | TEAE: Cardiac Auscultatory Investigations | TEAE: Cardiac Fibrillation NOS | TEAE: Cardiac Flutter | TEAE: Cardiac Murmur NOS | TEAE: Carotid Bruit | TEAE: Cartilage Disorder NOS | TEAE: Cartilage Disorders | TEAE: Cataract Unilateral | TEAE: Cellulitis | TEAE: Cervical Spasm | TEAE: Change in Bowel Habit NOS | TEAE: Chapped Lips | TEAE: Chest Discomfort | TEAE: Chest Tightness | TEAE: Colitis (Excl Infective) | TEAE: Colitis Ischaemic | TEAE: Colonic Polyp | TEAE: Congenital, Familial and Genetic Disorders | TEAE: Conjunctivitis | TEAE: Conjunctivitis Allergic | TEAE: Cyst NOS | TEAE: Cystitis Interstitial | TEAE: Cystitis NOS | TEAE: Dacryostenosis Acquired | TEAE: Deafness NOS | TEAE: Dental Disorders NEC | TEAE: Dermatitis Allergic | TEAE: Dermatitis Ascribed to Specific Agent | TEAE: Dermatitis Medicamentosa | TEAE: Dermatitis NOS | TEAE: Dermographism | TEAE: Diabetes Mellitus Non-Insulin-Dependent | TEAE: Drug Hypersensitivity | TEAE: Dysarthria | TEAE: Dysfunctional Uterine Bleeding* | TEAE: Dyshidrosis | TEAE: Dyskinesias and Movement Disorders NEC | TEAE: Dysuria | TEAE: Electrocardiogram Qrs Complex Abnormal | TEAE: Electrocardiogram T Wave Inversion | TEAE: Enteritis | TEAE: Epigastric Discomfort | TEAE: Erythema | TEAE: Erythemas | TEAE: Eye Injuries NEC | TEAE: Faecal Impaction
39 (7%) n (%): TEAE: Diarrhoea (Excl Infective)
23 (4%) n (%): TEAE: Bronchitis NOS
4 (<1%) n (%): TEAE: Blood Bilirubin Increased | TEAE: Blood Creatinine Increased | TEAE: Bronchospasm and Obstruction | TEAE: Candida Infections | TEAE: Cardiac Signs and Symptoms NEC | TEAE: Connective Tissue Disorders (Excl Le) | TEAE: Depression Aggravated | TEAE: Disturbances in Consciousness NEC | TEAE: Ear Infection NOS | TEAE: Endocrine Disorders | TEAE: Faecal Incontinence
13 (2%) n (%): TEAE: Depressive Disorders | TEAE: Dyspepsia | TEAE: Eye Disorders
7 (1%) n (%): TEAE: Bladder and Urethral Symptoms | TEAE: Chest Pain
5 (1%) n (%): TEAE: Breast Disorders NEC*
8 (1%) n (%): TEAE: Blood in Stool
2 (<1%) n (%): TEAE: Blood Glucose Increased | TEAE: Blood Uric Acid Increased | TEAE: Breast Cancer NOS* | TEAE: Breast and Nipple Neoplasms Malignant* | TEAE: Bunion | TEAE: Candidal Infection NOS | TEAE: Carbohydrate Tolerance Analyses (Incl Diabetes) | TEAE: Cardiac Conduction Disorders | TEAE: Cataracts (Excl Congenital) | TEAE: Cerumen Impaction | TEAE: Chest Wall Pain | TEAE: Cholecystitis and Cholelithiasis | TEAE: Cholelithiasis | TEAE: Conjunctival Infections, Irritations and Inflammations | TEAE: Dehydration | TEAE: Dermatitis Contact | TEAE: Diabetes Mellitus Aggravated | TEAE: Diaphragmatic Hernias | TEAE: Diarrhoea Haemorrhagic | TEAE: Diverticulitis NOS | TEAE: Diverticulum Inflammations | TEAE: Dry Eye NOS | TEAE: Dry Mouth | TEAE: Dyspepsia Aggravated | TEAE: ECG Investigations | TEAE: Ear Disorders NEC | TEAE: Ear Pain | TEAE: Eczema | TEAE: Endometriosis* | TEAE: Eructation | TEAE: External Ear Disorders NEC | TEAE: Faecal Abnormality NOS
27 (5%) n (%): TEAE: Blood Creatine Phosphokinase Increased
11 (2%) n (%): TEAE: Cough | TEAE: Dental Infections - Pathogen Class Unspecified
19 (4%) n (%): TEAE: Blood Cholesterol Increased | TEAE: Cholesterol Analyses
